Consider six molecules from US9650415B2, “Uric acid-lowering agent” (Suntory Holdings Limited, priority 2014, dated 2017).

Molecules are shown by their SMILES.

The test system of one assay is hyperuricemic mice. Put plainly: action of lowering serum uric acid levels for hyperuricemic mice (potassium oxonate model). It is filed as in vivo, BALBc mice. To be noted: FIG. 2. On the procedure: As to the animals used, male 7-week old BALBc mice were purchased from CLEA Japan, Inc., and subjected to an experiment after a one-week period of conditioning. The animals were bred in a breeding room with air-conditioning facilities (temperature: 23.5°±1.0° C., humidity: 55±10 RH %, the number of ventilation: 12 to 15 times/hour, illuminated: from 7:00 to 19:00 each day). During the period of conditioning, the mice were allowed to take a commercially available feed (CE-2, manufactured by CLEA Japan, Inc.) and distilled water ad libitum.
Oxonic acid is a substance that raises a blood uric acid level by inhibiting a urikase, a metabolic enzyme for uric acid. In view of the above, potassium oxonate (PO) was administered, thereby generating hyperuricemic model animals (see, Planta Med 2009; 75:302-306). […] In all the groups that include PO administration, PO previously suspended in a 0.5% aqueous CMC-Na solution was administered at a concentration of 250 mg/kg, and Normal Group was administered with a 0.5% aqueous CMC-Na solution, each being administered intraperitoneally. […] After 2 hours from the administration with PO, the blood was collected from the abdominal vena cava under anesthesia. After blood removal, the liver was harvested. The collected blood was allowed to stand at room temperature for 45 minutes, and centrifuged at 8,000 rpm for 10 minutes to recover sera. Here, the sera and the liver were preserved at −80° C. until the measurements were carried out.
The serum uric acid level was measured using 7180 Clinical Analyzer (manufactured by Hitachi Technologies).
The actions of lowering serum uric acid levels of soybean peptide heat-treated products were studied using hyperuricemic model animals, in the same manner as in Test Example 2. […] For each of the above-mentioned groups, the administration and the blood collection were carried out in the same manner as in Test Example 2 to measure a serum uric acid level. Here, the mixture of the 8 kinds of cyclic dipeptides prepared by using synthesized products of Cyclo(Ser-Tyr), Cyclo(Tyr-Gly), Cyclo(Tyr-Tyr), Cyclo(Phe-Tyr), Cyclo(Leu-Tyr), Cyclo(Val-Tyr), Cyclo(Ile-Tyr), and Cyclo(Asn-Tyr), in amounts to be contained in the soybean peptide heat-treated product, was used.
The actions of lowering serum uric acid levels of soybean peptide heat-treated products according to dose were studied using hyperuricemic model animals, in the same manner as in Test Example 3. […] For each of the above-mentioned groups, the administration and the blood collection were carried out in the same manner as in Test Example 2 to measure a serum uric acid level.

A further assay has as its target xanthine oxidase (XO). Put plainly: in vitro xanthine oxidase (XO) inhibiting action. It is filed as biochemical. The note with it: 4 U/L XO in PBS pH 7.5, xanthine substrate, absorbance at 295 nm after 30 minutes; mean±standard error. As for the experimental part:
The in vitro xanthine oxidase (XO) inhibiting action was studied on 210 kinds of cyclic dipeptides, linear dipeptides Tyr-Gly and Gly-Tyr, and an amino acid Tyr. […] Thereafter, 20 μL of a 250 μM xanthine solution previously dissolved in the PBS was added thereto, and the absorbance after 30 minutes was measured using a spectrophotometer (Synegy HT, manufactured by Bio Tek). The XO inhibition rate (%) at each concentration was calculated by the following calculation formula, to obtain activities of inhibiting XO (IC50 values). […] [formula] • wherein A: the absorbance of an enzyme-added, sample-non-added group at 295 nm; • B: the absorbance of an enzyme-non-added, sample-non-added group at 295 nm; • C: the absorbance of an enzyme-added, sample-added group at 295 nm; and • D: the absorbance of an enzyme-non-added, sample-added group at 295 nm.

As for `Oc1ncnc2[nH]ncc12` [Allopurinol, reference compound], the “serum uric acid level, effect versus PO Group” value with hyperuricemic mice (1 mg/kg oral) is “significant difference”.
Turning to `NC(=O)CC1NC(=O)C(Cc2ccc(O)cc2)NC1=O` (centres unmarked) [Cyclo(Asn-Tyr), cycloasparaginyltyrosine], at xanthine oxidase (XO), the IC50 – broadly, the concentration that gives 50% inhibition – stood at 113 ± 11.4 µM.
For the molecule `O=C(O)CC1NC(=O)C(Cc2ccc(O)cc2)NC1=O` (centres unmarked) [Cyclo(Asp-Tyr), cycloaspartyltyrosine], at xanthine oxidase (XO), the IC50 is 172 ± 13.5 µM.
Turning to `O=C1NC(Cc2ccc(O)cc2)C(=O)NC1Cc1ccccc1` (centres unmarked) [Cyclo(Phe-Tyr), cyclophenylalanyltyrosine], the IC50 against xanthine oxidase (XO) was determined as 22.2 ± 0.8 µM.
On to `O=C1CNC(=O)C(Cc2ccc(O)cc2)N1` (centres unmarked) [Cyclo(Tyr-Gly), cyclotyrosylglycine], for which the “serum uric acid level, effect versus PO Group” value in the assay on hyperuricemic mice (30 mg/kg oral) and in the assay with hyperuricemic mice (100 mg/kg oral) was “significant difference” each time. In the assay on hyperuricemic mice (Cyclo(Tyr-Gly) 10, 30, 100 mg/kg oral, PO 250 mg/kg i.p.), the “action of lowering serum uric acid level” value is recorded as “has an action of lowering a uric acid level in a dose-dependent manner”.
Take `O=C1NC(Cc2ccc(O)cc2)C(=O)NC1Cc1ccc(O)cc1` (centres unmarked) [Cyclo(Tyr-Tyr), cyclotyrosyltyrosine]: the IC50 at xanthine oxidase (XO) came to 29.5 ± 2.9 µM.
